Results from US20040044006A1, “Methods of use of quinolone compounds against pneumococcal and haemophilus bacteria” (priority 1999, published 2004).
Values after ≈ are worked out from the molar mass of the structure shown. Read-outs that look alike come from different tables or passages of the source.

How the values were obtained:
[1] = test system: penicillin susceptible and resistant pneumococcal strains (2 quinolone resistant); assay: Time-kill testing of 12 pneumococcal strains; format: cell-based, Streptococcus pneumoniae; settings: 12 penicillin susceptible and resistant pneumococcal strains; 24 h; bactericidal = ≧3 log10 cfu/ml (99.9%) reduction
Description: For time-kill studies, glass tubes containing 5 ml cation-adjusted Mueller-Hinton broth (Difco)+5% lysed horse blood with doubling antibiotic concentrations were inoculated with 5×10^5 to 5×10^6 cfu/ml and incubated at 35° C. in a shaking water bath. […] Growth controls with inoculum but no antibiotic were included with each experiment (Pankuch, et al., Antimicrob. Agents Chemother. 38:2065-2072, 1994; Pankuch, et al., Antimicrob. Agents Chemother. 40:1653-1656, 1996).
Lysed horse blood was prepared as described previously. The bacterial inoculum was prepared by diluting a 16 h broth (medium as above) culture in the same medium. Dilutions required to obtain the correct inoculum (5×10^5-5×10^6 cfu/ml) were determined by prior viability studies using each strain (Pankuch, et al., Antimicrob. Agents Chemother. 38:2065-2072, 1994; Pankuch, et al., Antimicrob. Agents Chemother. 40: 1653-1656, 1996).
To inoculate each tube of serially diluted antibiotic, 50 μl of diluted inoculum was delivered by pipette beneath the surface of the broth. Tubes were then vortexed and plated for viability counts within 10 min (approximately 0.2 h). The original inoculum was determined by using the untreated growth control. Only tubes containing an initial inoculum within the range of 5×10^5 to 5×10^6 cfu/ml were acceptable (Pankuch, et al., Antimicrob. Agents Chemother. 38:2065-2072, 1994; Pankuch, et al., Antimicrob. Agents Chemother. 40:1653-1656, 1996).
Viability counts of antibiotic-containing suspensions were performed by plating ten-fold dilutions of 0.1 ml aliquots from each tube in sterile Mueller-t-Hinton broth onto trypticase soy agar 5% sheep blood agar plates (BBL). Recovery plates were incubated for up to 72 h. Colony Counts were performed on plates yielding 30-300 colonies. The lower limit of sensitivity of colony counts was 300 cfu/ml (Pankuch, et al., Antimicrob. Agents Chemother. 38:2065-2072, 1994; Pankuch, et al., Antimicrob. Agents Chemother. 40:1653-1656, 1996).
Time-kill assays were analysed by determining the number of strains which yielded a log10 cfu/ml of −1, −2 and −3 at 0, 3, 6, 12 and 24 h, compared to counts at time 0 h. Antimicrobials were considered bactericidal at the lowest concentration that reduced the original inoculum by ≧3 log10 cfu/ml (99.9%) at each of the time periods, and bacteriostatic if the inoculum was reduced by 0-3 log10 cfu/ml. […] The problem of bacterial carryover was addressed as described previously. For macrolide time-kill testing, only strains with MICs≦4.0 μg/ml were tested (Pankuch, et al., Antimicrob. Agents Chemother. 38:2065-9072, 1994; Pankuch, et al., Antimicrob. Agents Chemother. 40:1653-1656, 1996).

[2] = test system: pneumococci with ciprofloxacin MICs ≧8 μg/ml; assay: Quinolone agar dilution MICs of 28 ciprofloxacin resistant pneumococcal strains, correlated with QRDR mutations; format: cell-based, Streptococcus pneumoniae
Description: Additionally these strains were tested for mutations in parC, gyrA, parE, and gyrB (Pan, et al. Antimicrob. Agents Chemother. 40:2321-2326, 1996) and for efflux mechanism (Brenwald, et ail., Antimicrob. Agents Chemother. 42:2032-2035, 1998).
Gemifloxacin susceptibility powder was obtained from SmithKline Beecham Laboratories, Harlow, UK. Agar dilution methodology was performed on 28 strains as described previously (M. R. Jacobs, Clin. Infect. Dis. 15: 119-127, […] and M. R. Jacobs, Rev. Med. Microbiol. 6:77-93, 1995), using Mueller-Hinton altar (BBL Microbiology Systems, Cockeysville, Md.) supplemented with 5% sheep blood. Standard quality control strains, including Streptococcus pneumoniae ATCC 49619, were included in each run of agar dilution MICs.

[3] = agar dilution, 28 strains with ciprofloxacin MICs ≧8.0 μg/ml

Q: What does the source list for `Cc1c(F)c(N2CCNC(C)C2)cc2c1c(=O)c(C(=O)O)cn2C1CC1` (centres unmarked) [Grepafloxacin, grepafloxacin]?
A: concentration at which bactericidal after 24 h [1]: 4 ×MIC; MIC50 ([2]; Streptococcus pneumoniae): 4 µg/mL (≈ 11.1 µM); MIC90 ([2]; Streptococcus pneumoniae): 8 µg/mL (≈ 22.3 µM); MIC ([2]; Streptococcus pneumoniae, read-out: MICs in strains with three or four QRDR mutations, 20 strains, bound holds in all 20 (ciprofloxacin, levofloxacin, sparfloxacin), 19 (grepafloxacin), 10 (trovafloxacin), 18 (gemifloxacin)): > 1 µg/mL; MIC ([2]; Streptococcus pneumoniae, read-out: MICs in strains with three or four QRDR mutations, 21 strains, bound holds in all 21 (ciprofloxacin, levofloxacin, sparfloxacin), 20 (grepafloxacin), 11 (trovafloxacin), 19 (gemifloxacin)): ≥ 1 µg/mL; MIC ([2]; Streptococcus pneumoniae, strain 1, ParC S79-F, ParE I460-V, GyrA S81-F, GyrB None): 4 µg/mL (≈ 11.1 µM); MIC ([2]; Streptococcus pneumoniae, strain 1, ParC S79-F, ParE I460-V, GyrA S83-F, GyrB None): 4 µg/mL (≈ 11.1 µM); MIC ([2]; Streptococcus pneumoniae, strain 2, ParC S79-Y, ParE I460-V, GyrA None, GyrB None): 0.5 µg/mL (≈ 1.39 µM); MIC ([2]; Streptococcus pneumoniae, strain 3, ParC D83-N, ParE I460-V, GyrA S81-F, GyrB None): 0.5 µg/mL (≈ 1.39 µM); MIC ([2]; Streptococcus pneumoniae, strain 3, ParC D83-N, ParE I460-V, GyrA S83-F, GyrB None): 0.5 µg/mL (≈ 1.39 µM); MIC ([2]; Streptococcus pneumoniae, strain 4, ParC S79-F, ParE I460-V, GyrA S81-F, GyrB None): 1 µg/mL (≈ 2.78 µM); MIC ([2]; Streptococcus pneumoniae, strain 4, ParC S79-F, ParE I460-V, GyrA S83-F, GyrB None): 1 µg/mL (≈ 2.78 µM); MIC ([2]; Streptococcus pneumoniae, strain 5, ParC R95-C, ParE D435-N, GyrA S81-F, GyrB None): 1 µg/mL (≈ 2.78 µM); MIC ([2]; Streptococcus pneumoniae, strain 5, ParC R95-C, ParE D435-N, GyrA S83-F, GyrB None): 1 µg/mL (≈ 2.78 µM); MIC ([2]; Streptococcus pneumoniae, strain 6, ParC S79-Y, ParE I460-V, GyrA E85-K, GyrB None): 2 µg/mL (≈ 5.56 µM); MIC ([2]; Streptococcus pneumoniae, strain 6, ParC S79-Y, ParE I460-V, GyrA E87-K, GyrB None): 2 µg/mL (≈ 5.56 µM); MIC ([2]; Streptococcus pneumoniae, strain 7, ParC None, ParE I460-V, GyrA None, GyrB None): 1 µg/mL (≈ 2.78 µM); MIC ([2]; Streptococcus pneumoniae, strain 8, ParC S79-Y, ParE None, GyrA None, GyrB None): 1 µg/mL (≈ 2.78 µM); MIC ([2]; Streptococcus pneumoniae, strain 9, ParC S79-Y, ParE None, GyrA None, GyrB None): 1 µg/mL (≈ 2.78 µM); MIC ([2]; Streptococcus pneumoniae, strain 10, ParC S79-F, ParE I460-V, GyrA S81-C, GyrB None): 2 µg/mL (≈ 5.56 µM); MIC ([2]; Streptococcus pneumoniae, strain 10, ParC S79-F, ParE I460-V, GyrA S83-C, GyrB None): 2 µg/mL (≈ 5.56 µM); MIC ([2]; Streptococcus pneumoniae, strain 11, ParC S79-F, ParE I460-V, GyrA S81-F, GyrB None): 4 µg/mL (≈ 11.1 µM); MIC ([2]; Streptococcus pneumoniae, strain 11, ParC S79-F, ParE I460-V, GyrA S83-F, GyrB None): 4 µg/mL (≈ 11.1 µM); MIC ([2]; Streptococcus pneumoniae, strain 12, ParC S79-F, ParE I460-V, GyrA None, GyrB D435-N): 4 µg/mL (≈ 11.1 µM); MIC ([2]; Streptococcus pneumoniae, strain 13, ParC S79-F, ParE I460-V, GyrA None, GyrB E474-K): 2 µg/mL (≈ 5.56 µM); MIC ([2]; Streptococcus pneumoniae, strain 14, ParC S79-F, ParE I460-V, GyrA S81-F, GyrB None): 4 µg/mL (≈ 11.1 µM); MIC ([2]; Streptococcus pneumoniae, strain 14, ParC S79-F, ParE I460-V, GyrA S83-F, GyrB None): 4 µg/mL (≈ 11.1 µM); MIC ([2]; Streptococcus pneumoniae, strain 15, ParC 79-F, ParE I460-V, GyrA S83-F, GyrB None): 4 µg/mL (≈ 11.1 µM); MIC ([2]; Streptococcus pneumoniae, strain 15, ParC S79-F, ParE I460-V, GyrA S81-F, GyrB None): 4 µg/mL (≈ 11.1 µM); MIC ([2]; Streptococcus pneumoniae, strain 16, ParC S79-F, ParE I460-V, GyrA S81-F, GyrB None): 4 µg/mL (≈ 11.1 µM); MIC ([2]; Streptococcus pneumoniae, strain 16, ParC S79-F, ParE I460-V, GyrA S83-F, GyrB None): 4 µg/mL (≈ 11.1 µM); MIC ([2]; Streptococcus pneumoniae, strain 17, ParC D83-N, ParE None, GyrA S81-F, GyrB None): 4 µg/mL (≈ 11.1 µM); MIC ([2]; Streptococcus pneumoniae, strain 17, ParC D83-N, ParE None, GyrA S83-F, GyrB None): 4 µg/mL (≈ 11.1 µM); MIC ([2]; Streptococcus pneumoniae, strain 18, ParC S79-F, ParE I460-V, GyrA S81-F, GyrB None): 4 µg/mL (≈ 11.1 µM); MIC ([2]; Streptococcus pneumoniae, strain 18, ParC S79-F, ParE I460-V, GyrA S83-F, GyrB None): 4 µg/mL (≈ 11.1 µM); MIC ([2]; Streptococcus pneumoniae, strain 19, ParC S79-F, ParE I460-V, GyrA S81-F, GyrB None): 4 µg/mL (≈ 11.1 µM); MIC ([2]; Streptococcus pneumoniae, strain 19, ParC S79-F, ParE I460-V, GyrA S83-F, GyrB None): 4 µg/mL (≈ 11.1 µM); MIC ([2]; Streptococcus pneumoniae, strain 20, ParC S79-F, ParE I460-V, GyrA E85-K, GyrB None): 4 µg/mL (≈ 11.1 µM); MIC ([2]; Streptococcus pneumoniae, strain 20, ParC S79-F, ParE I460-V, GyrA E87-K, GyrB None): 4 µg/mL (≈ 11.1 µM); MIC ([2]; Streptococcus pneumoniae, strain 21, ParC S79-F, ParE I460-V, GyrA S81-F, GyrB None): 4 µg/mL (≈ 11.1 µM); MIC ([2]; Streptococcus pneumoniae, strain 21, ParC S79-F, ParE I460-V, GyrA S83-F, GyrB None): 4 µg/mL (≈ 11.1 µM); MIC ([2]; Streptococcus pneumoniae, strain 22, ParC S79-F, ParE I460-V, GyrA S81-Y, GyrB None): 4 µg/mL (≈ 11.1 µM); MIC ([2]; Streptococcus pneumoniae, strain 22, ParC S79-F, ParE I460-V, GyrA S83-Y, GyrB None): 4 µg/mL (≈ 11.1 µM); MIC50 [2, 3]: 4.0 µg/mL (≈ 11.1 µM); MIC90 [2, 3]: 8.0 µg/mL (≈ 22.3 µM); MIC Range [2, 3]: 0.5 to 16.0 µg/mL; MIC Range ([2]; agar dilution, 28 strains with ciprofloxacin MICs ≧8.0 μg/ml, listed as grepafloxacin): 0.5 to 16 µg/mL
